Reference: patent US10508105B2, “Indazole compounds as mGluR4 allosteric potentiators, compositions, and methods of treating neurological dysfunction” (Vanderbilt University, priority 2017, dated 2019)
Where two headings read alike, the source gives them in different places.

Assays:
human mGlu4 = human mGlu4 (Homo sapiens (Human), UniProt Q14833); test: mGlu4 PAM assay in human mGlu4/Gqi5 cells with ~EC20 glutamate (Hamamatsu FDSS); assay type: cell-based; details: ~EC20 concentration of glutamate
Experimental: The disclosed compounds and compositions can be evaluated for their ability to act as a potentiatior of metabotropic glutamate receptor activity, in particular mGluR4 activity, by any suitable known methodology known in the art. For example, Chinese Hamster Ovary (CHO) cells transfected with human mGluR4 or HEK cells co-transfected with rat mGluR4 and the G-protein regulated Inwardly Rectifying Potassium channel (GIRK) were plated in clear bottom assay plates for assay in a Hamamatsu FDSS Fluorometric Plate Reader. The cells were loaded with either a Ca2+-sensitive fluorescent dye or the thallium responsive dye and the plates were washed and placed into a suitable kinetic plate reader. For human mGluR4 assays, a fluorescence baseline was established for 3-5 seconds, the disclosed compounds were then added to the cells, and the response in cells was measured. Approximately two and a half minutes later, a concentration of mGluR4 orthosteric agonist (e.g. glutamate, L-AP4, or L-SOP) eliciting approximately 20% (EC20) of the maximal agonist response was added to the cells, and the response was measured. Two minutes later, a concentration of mGluR4 agonist (e.g. glutamate, L-AP4, or L-SOP) eliciting 80% (EC80) of the maximal agonist response was added to the cells, and the response was measured. For rat mGluR4/GIRK experiments, a baseline was established for approximately five seconds, disclosed compounds were added, and either an EC20 or EC80 concentration of agonist was added approximately two and one half minutes later.
The above described assay operated in two modes. In the first mode, a range of concentrations of the disclosed compounds are added to cells, followed by a single fixed concentration of agonist. If the compound acts as a potentiatior, an EC50 value for potentiation and a maximum extent of potentiation by the compound at this concentration of agonist is determined by non-linear curve fitting. If the compound acts as an antagonist, an IC50 value is determined by non-linear curve fitting. In the second mode, several fixed concentrations of the disclosed compounds are added to various wells on a plate, followed by a range in concentrations of agonist for each concentration of disclosed compound. The EC50 values for the agonist at each concentration of compound are determined by non-linear curve fitting. A decrease in the EC50 value of the agonist with increasing concentrations of the sample compound (a leftward shift of the agonist concentration-response curve) is an indication of the degree of mGluR4 potentiation at a given concentration of the sample compound. A decrease in the maximal response of the agonist with increasing concentrations of the sample compounds, with or without a rightward shift in agonist potency, is an indication of the degree of antagonism at mGluR4. The second mode also indicates whether the sample compounds also affect the maximum response to mGluR4 to agonists.

Brain-Plasma Kp = assay type: in vivo; details: brain and plasma
rat CNS penetration (Kp) = assay type: in vivo; details: brain/plasma
[1] = tested on: haloperidol-induced catalepsy; test: haloperidol-induced catalepsy (standard PD model); assay type: in vivo, rodent; details: oral doses after haloperidol; relative to control mGlu4 PAM VU506
From the text: B) Efficacy of example 131 in the standard PD model of haloperidol-induced catalepsy, relative to a control mGlu4 PAM, VU506. […] Also see a) Engers, D. W.; Gogliotti, R. D.; Cheung, Y-Y.; Salovich, J. M.; Garcia-Barrantes, P. M.; Daniels, J. S.; Morrison, R.; Jones, C. K.; Blobaum, A. L.; Macor, J. E.; Bronson, J. J.; Conn, P. J.; Lindsley, C. W.; Niswender, C. M.; Hopkins, C. R. ‘Discovery, synthesis and pre-clinical characterization of N-(3-chloro-4-fluorophenyl)-1H-pyrazolo[4,3-b]pyridin-3-amine (VU0418506), a novel positive allosteric modulator of the metabotropic glutamate receptor 4 (mGlu4)’ ACS Chem. Neurosci. 2016, 7, 1192-1200; b) Niswender, C. M.; Jones, C. K.; Bubser, M.; Gray, A. T.; Blobaum, A. L.; Engers, D. W.; Altman, M. K.; O'Brien, D. E.; Rook, J. M.; Rodriguez, A. L.; Loch, M. T.; Daniels, J. S.; Lindsley, C. W.; Hopkins, C. R.; Conn, P. J. ‘Development of VU0418506, a positive allosteric modulator that differentiates metabotropic glutamate receptor 4 (mGlu4) homomeric receptors from mGlu2/4 heteromers’ ACS Chem. Neurosci., 2016, 7, 1201-1211.

human mGlu4, sequence (Q14833 33-912): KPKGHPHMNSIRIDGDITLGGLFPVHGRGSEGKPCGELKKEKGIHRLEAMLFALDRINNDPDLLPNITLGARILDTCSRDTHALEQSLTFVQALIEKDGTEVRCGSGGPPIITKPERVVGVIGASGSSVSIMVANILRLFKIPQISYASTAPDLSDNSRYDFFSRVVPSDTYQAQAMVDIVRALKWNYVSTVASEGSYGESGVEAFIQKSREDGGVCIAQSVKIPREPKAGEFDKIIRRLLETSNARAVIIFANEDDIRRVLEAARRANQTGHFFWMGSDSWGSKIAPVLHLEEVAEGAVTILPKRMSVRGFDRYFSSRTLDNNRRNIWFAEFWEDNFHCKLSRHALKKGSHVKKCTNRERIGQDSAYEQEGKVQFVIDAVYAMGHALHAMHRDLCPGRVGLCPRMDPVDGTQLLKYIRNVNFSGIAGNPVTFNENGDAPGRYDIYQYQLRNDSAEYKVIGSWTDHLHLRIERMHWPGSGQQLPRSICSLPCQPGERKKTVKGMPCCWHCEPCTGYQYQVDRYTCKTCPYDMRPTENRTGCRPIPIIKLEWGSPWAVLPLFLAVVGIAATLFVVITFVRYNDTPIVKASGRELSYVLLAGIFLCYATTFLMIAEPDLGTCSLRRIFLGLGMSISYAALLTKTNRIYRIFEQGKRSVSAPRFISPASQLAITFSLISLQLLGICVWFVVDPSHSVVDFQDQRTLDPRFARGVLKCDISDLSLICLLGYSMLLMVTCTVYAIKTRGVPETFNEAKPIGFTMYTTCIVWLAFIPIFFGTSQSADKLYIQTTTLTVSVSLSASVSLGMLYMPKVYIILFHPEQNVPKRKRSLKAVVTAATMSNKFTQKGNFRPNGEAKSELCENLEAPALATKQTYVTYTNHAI

| Structure (SMILES) | EC50 (human mGlu4; read-out: hmGluR4 PAM EC50) [nM] | Kp (Brain-Plasma Kp; rat) | EC50 (human mGlu4; read-out: mGlu4 PAM EC50) [nM] | other results |
| --- | --- | --- | --- | --- |
| Cn1nc(OC[C@H]2COCCO2)c2ccc(NC(=O)c3ncccc3N)cc21 [drawing 249] | 58.7 | 1.88 | – | – |
| Cn1nc(OC[C@H]2CCOC2)c2ccc(NC(=O)c3ncccc3N)cc21 [drawing 245] | 24.2 | 2.9 | – | – |
| Cn1nc(OC[C@H]2COCCO2)c2ccc(NC(=O)c3ncccc3N)cc21 [Compound 131] | – | – | 50.1 | Kp (rat CNS penetration (Kp)): 1.6; reversal of haloperidol-induced catalepsy [1]: reverse catalepsy in a dose-dependent manner |
| Cn1nc(C(=O)NC2CC(F)(F)C2)c2ccc(NC(=O)c3ccc(F)cn3)cc21 | 324 | 1.09 | – | – |
| Cn1nc(OCC2CCOCC2)c2ccc(NC(=O)c3ccc(F)cn3)cc21 | 99.2 | – | – | Kp (Brain-Plasma Kp): 3.29 |
| Cn1nc(OCC2CCOC2)c2ccc(NC(=O)c3ncccc3N)cc21 (stereo not shown) [drawing 241] | 75.4 | 3.09 | – | – |
| Cn1nc(OC[C@@H]2COCCO2)c2ccc(NC(=O)c3ncccc3N)cc21 [drawing 248] | 50.1 | 2.3 | – | – |
| Cn1nc(OCC2CCOCC2)c2ncc(NC(=O)c3ccccn3)cc21 [drawing 243] | 394 | 1.51 | – | – |
| O=C(Nc1ccc2c(OC[C@H]3CCOC3)n[nH]c2c1)c1ccccn1 | 228 | 1.42 | – | – |
| Cn1nc(OCC2CCOC2)c2ccc(NC(=O)c3cccc(F)n3)cc21 (stereo not shown) [drawing 251] | 266 | 3.35 | – | – |
| Cn1nc(OC[C@@H]2COCCO2)c2ccc(NC(=O)c3ccccn3)cc21 | 119 | 1.47 | – | – |
| O=C(Nc1ccc2c(OCC3CCOC3)n[nH]c2c1)c1ccccn1 (stereo not shown) | 360 | 2.09 | – | – |
| Cn1nc(OC[C@@H]2CCOC2)c2ncc(NC(=O)c3ncccc3N)cc21 [drawing 246] | 120 | 1.84 | – | – |
| Cn1nc(OCC2CCOCC2)c2ncc(NC(=O)c3ncccc3N)cc21 [Compound 58] | – | – | 50.5 | – |
| Cn1nc(OC2CCOCC2)c2ccc(Nc3n[nH]c4cccnc34)cc21 [Compound 20] | – | – | 45.4 | – |
| Cn1nc(OCC2CCOC2)c2ccc(NC(=O)c3ncccc3F)cc21 (stereo not shown) [Compound 97] | – | – | 505 | – |
| Cn1nc(OCCN2CCOCC2)c2c(Cl)cc(Nc3n[nH]c4cccnc34)cc21 [Compound 24] | – | – | 322 | – |
| Cn1nc(OCC2CCOCC2)c2ncc(NC(=O)c3ncccc3O)cc21 [Compound 59] | – | – | 599 | – |
| Cn1nc(OCC2COCCO2)c2ccc(Nc3n[nH]c4ncccc34)cc21 (stereo not shown) [Compound 112] | – | – | 176 | – |
| Cn1nc(OCC2CCCOC2)c2ccc(NC(=O)c3ccccn3)cc21 (stereo not shown) [Compound 85] | – | – | 170 | – |
| Cc1ccoc1C(=O)Nc1ccc2c(OCC3CCOC3)nn(C)c2c1 (stereo not shown) [Compound 96] | – | – | 339 | – |
| CC1CC(Oc2nn(C)c3cc(NC(=O)c4ccccn4)ccc23)CCO1 (stereo not shown) [Compound 73] | – | – | 398 | – |
| Cn1nc(OCC2COCCO2)c2ccc(Nc3n[nH]c4cccnc34)cc21 (stereo not shown) [Compound 35] | – | – | 361 | – |
| Cn1nc(O[C@H]2CCOC2)c2ccc(Nc3n[nH]c4ncccc34)cc21 [Compound 33] | – | – | 575 | – |
| Cn1nc(OCC2CCOC2)c2ccc(NC(=O)c3nccnc3N)cc21 (stereo not shown) [Compound 92] | – | – | 115 | – |
| Cn1nc(C(=O)NC2CCOC2)c2ccc(NC(=O)c3ncccc3N)cc21 (stereo not shown) [Compound 111] | – | – | 421 | – |

| Structure (SMILES) | EC50 (human mGlu4; read-out: hmGluR4 PAM EC50) [nM] | Kp (Brain-Plasma Kp; rat) | EC50 (human mGlu4; read-out: mGlu4 PAM EC50) [nM] | other results |
| --- | --- | --- | --- | --- |
| [2H]C([2H])([2H])Oc1nn(C)c2cc(Nc3n[nH]c4cccnc34)ccc12 [Compound 8] | – | – | 294 | – |
| Cn1nc(OCC2COC(C)(C)C2)c2ccc(NC(=O)c3ccc(F)cn3)cc21 (stereo not shown) [Compound 103] | – | – | 297 | – |
| Cn1nc(OCCN2CCOCC2)c2ccc(Nc3n[nH]c4cccnc34)cc21 [Compound 21] | – | – | 238 | – |
| [2H]C([2H])(C)Oc1nn(C)c2cc(Nc3n[nH]c4cccnc34)ccc12 [Compound 7] | – | – | 356 | – |
| COc1nn(C)c2cc(Nc3n[nH]c4cccnc34)cc(Cl)c12 [Compound 26] | – | – | 707 | – |
| Cn1nc(OCC2CCOC2)c2ncc(NC(=O)c3ncccc3N)cc21 (stereo not shown) [drawing 242] | 86.8 | 0.72 | – | – |
| Cn1nc(OC[C@@H]2CCOC2)c2ccc(NC(=O)c3ncccc3N)cc21 [drawing 244] | 27.3 | 2.47 | – | – |
| Cn1nc(OC[C@H]2CCOC2)c2ncc(NC(=O)c3ncccc3N)cc21 [Compound 84] | – | – | 166 | – |
| Cn1nc(OC2CCOC(C)(C)C2)c2ccc(NC(=O)c3ncccc3N)cc21 (stereo not shown) [Compound 68] | – | – | 131 | – |
| Cn1nc(OCC2CCOC2)c2ccc(NC(=O)c3cccc(Cl)n3)cc21 (stereo not shown) [Compound 99] | – | – | 820 | – |
| Cn1nc(Oc2ncccc2C#N)c2ccc(Nc3n[nH]c4cccnc34)cc21 [Compound 15] | – | – | 184 | – |
| [2H]C([2H])([2H])n1nc(OCC2CCOC2)c2ccc(NC(=O)c3ccccn3)cc21 (stereo not shown) [Compound 110] | – | – | 50.4 | – |
| Cn1nc(OC2CCS(=O)(=O)CC2)c2ccc(NC(=O)c3ncccc3O)cc21 [Compound 41] | – | – | 403 | – |
| Cn1nc(C(=O)NC23CC(F)(C2)C3)c2ccc(NC(=O)c3ccccn3)cc21 | 569 | 1.43 | – | – |
| Cn1nc(OC2COC2)c2ccc(Nc3n[nH]c4cccnc34)cc21 [Compound 22] | – | – | 629 | – |
| Cn1nc(OC2CCOCC2F)c2ccc(NC(=O)c3ncccc3N)cc21 (stereo not shown) [Compound 71] | – | – | 125 | – |
| CC1CC(COc2nn(C)c3cc(NC(=O)c4ncccc4N)ccc23)CC(C)O1 (stereo not shown) [Compound 108] | – | – | 187 | – |
| Cn1nc(OC2CCS(=O)(=O)C2)c2ccc(NC(=O)c3ccccn3)cc21 (stereo not shown) [Compound 53] | – | – | 272 | – |
| Cn1nc(OC2CCOCC2F)c2ccc(Nc3n[nH]c4cccnc34)cc21 (stereo not shown) [Compound 64] | – | – | 89 | – |
| O=C(Nc1ccc2c(OC[C@@H]3CCOC3)n[nH]c2c1)c1ccccn1 | 201 | 1.44 | – | – |
| COCCCOc1nn(C)c2cc(Nc3n[nH]c4cccnc34)ccc12 [Compound 30] | – | – | 172 | – |
| Cn1nc(OCC2CCOC2)c2ncc(Nc3n[nH]c4cccnc34)cc21 (stereo not shown) [Compound 60] | – | – | 293 | – |
| Cn1nc(OC[C@H]2CCOC2)c2ncc(NC(=O)c3ncccc3N)cc21 [drawing 247] | 166 | 1.83 | – | – |
| COCCOc1nn(C)c2cc(Nc3n[nH]c4ncccc34)ccc12 [Compound 34] | – | – | 529 | – |
| Cn1nc(Oc2ccc(C#N)cn2)c2c(Cl)cc(Nc3n[nH]c4cccnc34)cc21 [Compound 25] | – | – | 482 | – |
